Test results taken from PubChem BioAssay AID256 (DTP/NCI, 2004).
Toxic doses and inconclusive results are not listed. How the source made its calls: active means survival T/C of 150% or more; inactive means T/C below 125% in these data.

Test system: CD2F1 mice, L1210 leukemia ip, survival T/C
Assay: NCI In Vivo Anticancer Drug Screen. Data for tumor model L1210 Leukemia (intraperitoneal) in CD2F1 (CDF1) mice
Conditions: higher = longer survival
Summary of the method: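 Mice carrying a transplanted tumor received test compound or vehicle alone. The value is the measurement in the treated group divided by that in the vehicle-treated control group.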

[1] = endpoint: mean survival time, dose: 25.0 mg/kg/injection, schedule: Q01DX009 (ip), vehicle: saline with Tween-80
[2] = endpoint: mean survival time, dose: 100.0 mg/kg/injection, schedule: Q01DX001 (ip), vehicle: saline with Tween-80
[3] = endpoint: mean survival time, dose: 100.0 mg/kg/injection, schedule: Q01DX009 (ip), vehicle: saline with Tween-80
[4] = endpoint: mean survival time, dose: 200.0 mg/kg/injection, schedule: Q01DX001 (ip), vehicle: saline with Tween-80
[5] = endpoint: mean survival time, dose: 200.0 mg/kg/injection, schedule: Q01DX009 (ip), vehicle: saline with Tween-80
[6] = endpoint: mean survival time, dose: 400.0 mg/kg/injection, schedule: Q01DX001 (ip), vehicle: saline with Tween-80
[7] = endpoint: mean survival time, dose: 400.0 mg/kg/injection, schedule: Q01DX009 (ip), vehicle: saline with Tween-80
[8] = endpoint: mean survival time, dose: 100.0 mg/kg/injection, schedule: Q04DX003 (ip), vehicle: saline with Tween-80
[9] = endpoint: mean survival time, dose: 200.0 mg/kg/injection, schedule: Q04DX003 (ip), vehicle: saline with Tween-80
[10] = endpoint: mean survival time, dose: 400.0 mg/kg/injection, schedule: Q04DX003 (ip), vehicle: saline with Tween-80

Measured: T/C

CN(C)c1ccc(C2(O)C3CCC2CC3)cc1 (stereo not drawn)
inactive: endpoint: median survival time, dose: 25.0 mg/kg/injection, schedule: Q04DX002 (ip), vehicle: saline with Tween-80 90 % of control | endpoint: median survival time, dose: 50.0 mg/kg/injection, schedule: Q04DX002 (ip), vehicle: saline with Tween-80 100 % of control | endpoint: median survival time, dose: 100.0 mg/kg/injection, schedule: Q04DX002 (ip), vehicle: saline with Tween-80 90 % of control

COP(=O)(OC)OCC1OC(n2cnc3c(N)ncnc32)C(O)C1O (stereo not drawn)
inactive: endpoint: median survival time, dose: 12.5 mg/kg/injection, schedule: Q01DX005 (ip), vehicle: water 96 % of control | endpoint: median survival time, dose: 25.0 mg/kg/injection, schedule: Q01DX005 (ip), vehicle: water 96 % of control | endpoint: median survival time, dose: 50.0 mg/kg/injection, schedule: Q01DX005 (ip), vehicle: water 102 % of control | endpoint: median survival time, dose: 100.0 mg/kg/injection, schedule: Q01DX005 (ip), vehicle: water 103 % of control | endpoint: median survival time, dose: 200.0 mg/kg/injection, schedule: Q01DX005 (ip), vehicle: water 100 % of control

Nc1ccccc1Nc1ccccc1
inactive: endpoint: mean survival time, dose: 100.0 mg/kg/injection, schedule: Q01DX001 (ip), vehicle: saline + alcohol 101 % of control | endpoint: mean survival time, dose: 200.0 mg/kg/injection, schedule: Q01DX001 (ip), vehicle: saline + alcohol 97 % of control

Nc1ccnn1CCO
inactive: endpoint: mean survival time, dose: 100.0 mg/kg/injection, schedule: Q04DX003 (ip), vehicle: water 102 % of control | endpoint: mean survival time, dose: 200.0 mg/kg/injection, schedule: Q04DX003 (ip), vehicle: water 101 % of control | endpoint: mean survival time, dose: 400.0 mg/kg/injection, schedule: Q04DX003 (ip), vehicle: water 101 % of control

Cc1ccc(C(=O)C=C(C(F)(F)F)C(F)(F)F)cc1
inactive: endpoint: mean survival time, dose: 6.25 mg/kg/injection, schedule: Q01DX009 (ip), vehicle: saline with Tween-80 102 % of control | endpoint: mean survival time, dose: 12.5 mg/kg/injection, schedule: Q01DX009 (ip), vehicle: saline with Tween-80 98 % of control | [1] 98 % of control

Cc1cc(C)nc(NS(=O)(=O)c2ccc(NCN3C(=O)c4ccccc4C3=O)cc2)n1
inactive: [2] 101 % of control | [3] 96 % of control | [4] 107 % of control | [5] 94 % of control | [6] 107 % of control | [7] 90 % of control

Nc1ccc2sccc2c1
inactive: [8] 103 % of control | [9] 102 % of control | [10] 101 % of control

[CH3][Sn]1([CH3])[O]C2C(CO)OC(n3ccc(=O)[nH]c3=O)C2[O]1 (stereo not drawn)
inactive: endpoint: mean survival time, dose: 12.5 mg/kg/injection, schedule: Q01DX005 (ip), vehicle: other 95 % of control | endpoint: mean survival time, dose: 25.0 mg/kg/injection, schedule: Q01DX005 (ip), vehicle: other 101 % of control | endpoint: mean survival time, dose: 50.0 mg/kg/injection, schedule: Q01DX005 (ip), vehicle: other 92 % of control

Nc1nc(N)nc(-c2ccccn2)n1
inactive: endpoint: mean survival time, dose: 50.0 mg/kg/injection, schedule: Q01DX009 (ip), vehicle: saline 112 % of control

CC1(C(=O)O)CCCC2(C)C3=C(CCCC3)CCC12 (stereo not drawn)
inactive: [3] 96 % of control | [8] 98 % of control | [5] 93 % of control | [9] 93 % of control | [7] 102 % of control | [10] 90 % of control

O=C(NCC(S)c1ccc(Cl)cc1)C(F)(F)F (stereo not drawn)
inactive: endpoint: mean survival time, dose: 12.5 mg/kg/injection, schedule: Q04DX003 (ip), vehicle: saline with Tween-80 96 % of control | endpoint: mean survival time, dose: 25.0 mg/kg/injection, schedule: Q04DX003 (ip), vehicle: saline with Tween-80 90 % of control | endpoint: mean survival time, dose: 50.0 mg/kg/injection, schedule: Q04DX003 (ip), vehicle: saline with Tween-80 96 % of control

COc1ccc(/C=N/N=C(/N)N[N+](=O)[O-])cc1
inactive: endpoint: mean survival time, dose: 100.0 mg/kg/injection, schedule: Q01DX001 (ip), vehicle: Klucel (hydroxypropylcellulose) (HPC) 94 % of control | endpoint: mean survival time, dose: 200.0 mg/kg/injection, schedule: Q01DX001 (ip), vehicle: Klucel (hydroxypropylcellulose) (HPC) 97 % of control | endpoint: mean survival time, dose: 400.0 mg/kg/injection, schedule: Q01DX001 (ip), vehicle: Klucel (hydroxypropylcellulose) (HPC) 94 % of control

COc1ccc2c3csc4ccccc4c-3nc2c1
inactive: [8] 91 % of control

Cc1ccc(S(=O)(=O)NN=C(c2ccccc2)c2ccccc2)cc1
inactive: endpoint: mean survival time, dose: 25.0 mg/kg/injection, schedule: Q01DX009 (ip), vehicle: water 101 % of control | endpoint: mean survival time, dose: 50.0 mg/kg/injection, schedule: Q01DX009 (ip), vehicle: water 101 % of control | endpoint: mean survival time, dose: 100.0 mg/kg/injection, schedule: Q01DX009 (ip), vehicle: water 95 % of control | endpoint: mean survival time, dose: 200.0 mg/kg/injection, schedule: Q01DX009 (ip), vehicle: water 95 % of control

CCCCOC(=O)CNC(=O)c1ccc(C)c(OCc2ccccc2)c1[N+](=O)[O-]
inactive: endpoint: mean survival time, dose: 75.0 mg/kg/injection, schedule: Q01DX001 (ip), vehicle: steriod suspending solution 100 % of control | endpoint: mean survival time, dose: 150.0 mg/kg/injection, schedule: Q01DX001 (ip), vehicle: steriod suspending solution 100 % of control | endpoint: mean survival time, dose: 300.0 mg/kg/injection, schedule: Q01DX001 (ip), vehicle: steriod suspending solution 100 % of control

CC[NH-].CC[NH-].[Cl][Pt+2][Cl]
inactive: endpoint: mean survival time, dose: 2.5 mg/kg/injection, schedule: Q04DX003 (ip), vehicle: water 115 % of control | endpoint: mean survival time, dose: 5.0 mg/kg/injection, schedule: Q04DX003 (ip), vehicle: water 116 % of control | endpoint: mean survival time, dose: 10.0 mg/kg/injection, schedule: Q04DX003 (ip), vehicle: water 112 % of control

O=C1C=CC(=O)N1c1ccccc1Cl (tested in a mixture with another compound)
inactive: [3] 95 % of control | [5] 96 % of control | [7] 98 % of control

O=C(O)C(=O)O.O=C(O)C(=O)O.[Th]
inactive: endpoint: mean survival time, dose: 200.0 mg/kg/injection, schedule: Q01DX001 (ip), vehicle: saline 95 % of control | endpoint: mean survival time, dose: 400.0 mg/kg/injection, schedule: Q01DX001 (ip), vehicle: saline 97 % of control

O=C(O)CNC(=O)C(CN1CC(=O)OC1c1ccc([N+](=O)[O-])cc1)N1C(=O)c2ccccc2C1=O (stereo not drawn)
inactive: endpoint: mean survival time, dose: 100.0 mg/kg/injection, schedule: Q04DX003 (ip), vehicle: saline sonified 92 % of control | endpoint: mean survival time, dose: 200.0 mg/kg/injection, schedule: Q04DX003 (ip), vehicle: saline sonified 88 % of control | endpoint: mean survival time, dose: 400.0 mg/kg/injection, schedule: Q04DX003 (ip), vehicle: saline sonified 92 % of control

O=C(O)C1C2CCCCC2=C2CCCCC2C1C(=O)O (stereo not drawn)
inactive: [3] 98 % of control | [5] 104 % of control

CC(C)C1=CC2=CCC3C(C)(C(=O)O)CCCC3(C)C2CC1 (stereo not drawn)
inactive: [1] 103 % of control | endpoint: mean survival time, dose: 50.0 mg/kg/injection, schedule: Q01DX009 (ip), vehicle: saline with Tween-80 98 % of control | [2] 98 % of control | [3] 96 % of control | [4] 95 % of control | [5] 96 % of control | [6] 102 % of control | [7] 97 % of control

CCC1(C)CCC2(C)C(CCC3C(C)(CO)CCCC32O)C1 (stereo not drawn)
inactive: [2] 98 % of control | [4] 94 % of control | [6] 98 % of control

CC(=O)Nc1ccc2oc(=O)ccc2c1
inactive: [8] 101 % of control | [9] 101 % of control | [10] 101 % of control

CC(C)(C)OC(=O)N/N=C1\CC2CCC1C2 (stereo not drawn)
inactive: [1] 107 % of control

CCCCC(O)CCCCCCCCCC(=O)O (stereo not drawn)
inactive: [8] 97 % of control | [9] 101 % of control

CN(C)c1ccc(N=Nc2ccccc2)cc1
inactive: endpoint: mean survival time, dose: 31.25 mg/kg/injection, schedule: Q01DX009 (ip), vehicle: saline with Tween-80 98 % of control | endpoint: mean survival time, dose: 62.5 mg/kg/injection, schedule: Q01DX009 (ip), vehicle: saline with Tween-80 96 % of control | endpoint: mean survival time, dose: 62.5 mg/kg/injection, schedule: Q04DX003 (ip), vehicle: saline with Tween-80 93 % of control | endpoint: mean survival time, dose: 125.0 mg/kg/injection, schedule: Q04DX003 (ip), vehicle: saline with Tween-80 95 % of control
